Source: publication PMC5746060, “General and Modular Strategy for Designing Potent, Selective, and Pharmacologically Compliant Inhibitors of Rhomboid Proteases” (Cell Chemical Biology, 2017)
Starred links: 1 amine or outer side, 2 acyl side, 3 side chain; linkers in the order of their positions; H or OH if unused. Non-standard residues stand in square brackets, D forms with d. Residues, ends and D or L forms follow the SMILES beside them. *: point of attachment. NH(4-phenylbutyl) = c1ccc(CCCCN*)cc1; X1 = C[C@H](N[*:1])C(=O)C(=O)[*:2]; NHPhenethyl = c1ccc(CCN*)cc1

Columns and labels:
[1] = target: T1, Escherichia coli rhomboid GlpG (Escherichia coli, UniProt P09391); assay: in vitro GlpG inhibition assay with fluorogenic transmembrane peptide substrate (apparent IC50); assay type: biochemical
T1 construct: made in house; host or cells: E. coli C41(DE3)
Description: To gain insight into these preferences and their possible interactions, we have generated tetra- and pentapeptidyl chloromethylketones (CMK or cmk henceforth) harboring amino acids preferred in positions P5 to P1 by the Escherichia coli rhomboid GlpG (GlpG henceforth), using the sequence background of the Providencia TatA ([Stevenson et al., 2007]), represented by the parent compound Ac-IATA-cmk. We measured the inhibitory properties of this series of compounds using a newly developed in vitro assay employing a fluorogenic transmembrane peptide substrate ([Ticha et al., 2017]) that faithfully represents a native rhomboid substrate.
Figure 1 The Potency of Substrate-Derived Inhibitors Can be Improved by Modifying the Amino acid Sequence of the P5 to P1 Region (A) The parent inhibitor Ac-IATA-cmk was modified by introducing strongly preferred amino acids ([Zoll et al., 2014]) into the P4, P3, P2, and P5 positions to yield the listed compounds. Their apparent IC50 values were measured with 1 hr preincubation using 10 μM fluorogenic substrate KSp35 and 0.05% (w/v) DDM. The reported values are best-fit means with SD representative of 2–3 measurements. (B) The sequence-optimized peptidyl chloromethylketones were soaked into the native crystals of GlpG and structures of the complexes were solved by X-ray diffraction (for statistics, see Table S1). […] Note that in the Ac-RVRHA-cmk structure (right), the side chain of the Arg residue in the P5 position of the inhibitor has not been modeled due to poor or missing electron density peaks. (C) Interactions of RVRHA-cmk with GlpG were analyzed by Ligplot+ ([Laskowski and Swindells, 2011]). Ligands are shown as thick sticks with carbons in green, proteins as thin sticks with carbons in gray, hydrogen bonds as yellow dashed lines, and amino acids involved in van der Waals contacts are highlighted as transparent surfaces. The inhibitor forms covalent bonds with S201 and H254 via the chloromethylketone warhead, and it hydrogen bonds with the backbone of residues 196–198 from the L3 loop and residues 248–250 from the L5 loop. van der Waals contacts with the inhibitor are formed by the residues from the L3 loop of GlpG, by S193 and Q189 from TMD3, and by F146 and M120 from the L1 loop that pack against the Val side chain of the P4 position of the inhibitor, as observed previously ([Zoll et al., 2014]). (D) The conformations of peptide inhibitors bound to the active site of GlpG were compared by performing structural alignment of the complexes of VRHAcmk (PDB: 5MT7), RVRHAcmk (PDB: 5MT8), IATAcmk (PDB: 4QO2), and VRMAcho (PDB: 5F5B) in PyMOL ([Schrodinger, 2012]). […] The backbone of the ligands in all complexes has virtually identical conformation with the exception of the distortion of the oxyanion by the chloromethylketone, and the biggest differences are found in the conformation of the P2 side chain, which is not surprising, because almost any side chain can be accommodated in this position ([Zoll et al., 2014]). TEXT PRINTED IN THE PICTURE: (A) AcIATAcmk: IC50 (μM): 213 | (A) AcVATAcmk: IC50 (μM): 450 | (A) AcIAHAcmk: IC50 (μM): 200 | (A) AcIRTAcmk: IC50 (μM): 84 | (A) AcVRHAcmk: IC50 (μM): 27 | (A) AcRVRHAcmk: IC50 (μM): 8
Figure 2 A Screen of Electrophilic Warheads for the Inhibition of Rhomboid Proteases The optimized parent sequence Ac-RVRHA was linked to electrophilic warheads commonly used for targeting serine proteases (reviewed in [Hedstrom, 2002], [Walker and Lynas, 2001]). The apparent IC50 values of the compounds were measured in 0.05% DDM using 10 μM substrate KSp35 ([Ticha et al., 2017]) with 1 hr preincubation. Given are the mean values of 2–3 measurements. […]

endogenous GlpG = target: T2, endogenous GlpG (Escherichia coli, UniProt P09391); assay: inhibition of endogenous GlpG in live E. coli (LacYTM2 substrate cleavage, western blot); assay type: cell-based; details: live E. coli NR698, substrate MBP-FLAG-LacYTM2-Trx; read-out: IC50 In Vivo (GlpG)
T2 construct: E. coli expressing endogenous levels of GlpG; endogenous in cells; host or cells: E. coli K12 NR698 (permeabilised outer membrane)
Method: The substrate MBP-FLAG-LacYTM2-Trx ([Strisovsky et al., 2009]) was expressed in wild-type E. coli NR698 with genetically permeabilized outer membrane ([Ruiz et al., 2005]) in the presence of increasing concentrations of inhibitors as described in STAR Methods. Substrate cleavage was measured in cell lysates by immunoblotting for FLAG and quantified using near-infrared fluorescence. The reported in vivo IC50 values are best-fit means with SD representative of 2–3 measurements. DMSO, dimethylsulfoxide vehicle control; KO, E. coli glpG::tet. […] The substrate AmyESP-MBP-FLAG-LacYTM2-Trx-HA was expressed in Bacillus subtilis 168 (ydcA::neo, xdkE::AmyESP-MBP-LacYTM2-Trx(erm, lin)) (BS87) in the presence of increasing concentrations of inhibitors as described in STAR Methods. Substrate cleavage was detected in cell lysates by immunoblotting for FLAG and detection by near-infrared fluorescence. […] This treatment was necessary because the specific cleavage product could not be resolved sufficiently well from the non-specific bands to be integrated separately. DMSO, dimethylsulfoxide vehicle control; YqgP KO, Bacillus subtilis 168 (ydcA::neo, yqgP::tet, xdkE::AmyESP-MBP-LacYTM2-Trx(erm, lin)) (BS88).

T2 sequence (P09391 whole entry): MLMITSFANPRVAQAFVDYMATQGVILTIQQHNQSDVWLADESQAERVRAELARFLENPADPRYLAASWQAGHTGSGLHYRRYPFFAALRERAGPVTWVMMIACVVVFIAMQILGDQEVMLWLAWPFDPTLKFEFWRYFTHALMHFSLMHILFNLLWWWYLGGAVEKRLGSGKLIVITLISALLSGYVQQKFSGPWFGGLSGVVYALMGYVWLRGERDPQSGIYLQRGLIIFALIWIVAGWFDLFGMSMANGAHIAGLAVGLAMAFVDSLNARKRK
T1 sequence (P09391 whole entry): as above

| SMILES | fold lower IC50 than the parent compound 1 ([1]; ratio of apparent IC50 values) | IC50 (endogenous GlpG) [nM] | IC50 ([1]; 1 hr preincubation, 10 μM fluorogenic substrate KSp35, 0.05% (w/v) DDM) [nM] |
| --- | --- | --- | --- |
| CC(=O)N[C@@H](CCCNC(=N)N)C(=O)N[C@H](C(=O)N[C@@H](CCCNC(=N)N)C(=O)N[C@@H](Cc1c[nH]cn1)C(=O)N[C@@H](C)C(=O)C(=O)NCCCCc1ccccc1)C(C)C [compound 11, Ac-RVRHA-CONH-phenylbutyl] (Ac-RVRH[X1]-{NH(4-phenylbutyl)}) | about 1,000 fold | 2.7 ± 0.1 | – |
| CC(=O)N[C@@H](CCCNC(=N)N)C(=O)N[C@H](C(=O)N[C@@H](CCCNC(=N)N)C(=O)N[C@@H](Cc1c[nH]cn1)C(=O)N[C@@H](C)C(=O)C(=O)NCCc1ccccc1)C(C)C [compound 9, Ac-RVRHA-CONH-phenylethyl] (Ac-RVRH[X1]-NHPhenethyl) | – | 8.8 ± 0.4 | 440 |
